Key:
Assay in all cases: KINOMEscan scanMAX
Format in all cases: binding
Conditions in all cases: read-out: Percent Control
PFTAIRE2 = target: T1, PFTAIRE2 (Homo sapiens, UniProt Q96Q40)
T1 construct: purchased Eurofins Discovery (DiscoverX KINOMEscan scanMAX)
Method: (§1) The kinome-wide binding assay was performed by Eurofins Discovery using the scanMAX screening platform. More information can be found on the Eurofins Discovery Web site.

MLK3 = target: T2, MLK3 (Homo sapiens, UniProt Q16584)
T2 construct: purchased Eurofins Discovery (DiscoverX KINOMEscan scanMAX)
Method: as §1

MAP3K2 = target: T3, MAP3K2 (Homo sapiens, UniProt Q9Y2U5)
T3 construct: purchased Eurofins Discovery (DiscoverX KINOMEscan scanMAX)
Method: as §1

DCAMKL1 = target: T4, DCAMKL1 (Homo sapiens, UniProt O15075)
T4 construct: purchased Eurofins Discovery (DiscoverX KINOMEscan scanMAX)
Method: as §1

PIK3CA(I800L) = target: T5, PIK3CA(I800L) (Homo sapiens, UniProt P42336, I800L)
T5 construct: purchased Eurofins Discovery (DiscoverX KINOMEscan scanMAX)
Method: as §1

NEK5 = target: T6, NEK5 (Homo sapiens, UniProt Q6P3R8)
T6 construct: purchased Eurofins Discovery (DiscoverX KINOMEscan scanMAX)
Method: as §1

[1] = target: T7, RPS6KA4(Kin.Dom.1-N-terminal) (Homo sapiens, UniProt O75676)
T7 construct: RPS6KA4(Kin.Dom.1-N-terminal); purchased Eurofins Discovery (DiscoverX KINOMEscan scanMAX)
Method: as §1

WEE2 = target: T8, WEE2 (Homo sapiens, UniProt P0C1S8)
T8 construct: purchased Eurofins Discovery (DiscoverX KINOMEscan scanMAX)
Method: as §1

PIK3CD = target: T9, PIK3CD (Homo sapiens, UniProt O00329)
T9 construct: purchased Eurofins Discovery (DiscoverX KINOMEscan scanMAX)
Method: as §1

ERK4 = target: T10, ERK4 (Homo sapiens, UniProt P31152)
T10 construct: purchased Eurofins Discovery (DiscoverX KINOMEscan scanMAX)
Method: as §1

PIK3C2B = target: T11, PIK3C2B (Homo sapiens, UniProt O00750)
T11 construct: purchased Eurofins Discovery (DiscoverX KINOMEscan scanMAX)
Method: as §1

TNNI3K = target: T12, TNNI3K (Homo sapiens, UniProt Q59H18)
T12 construct: purchased Eurofins Discovery (DiscoverX KINOMEscan scanMAX)
Method: as §1

PDPK1 = target: T13, PDPK1 (Homo sapiens, UniProt O15530)
T13 construct: purchased Eurofins Discovery (DiscoverX KINOMEscan scanMAX)
Method: as §1

DMPK = target: T14, DMPK (Homo sapiens, UniProt Q09013)
T14 construct: purchased Eurofins Discovery (DiscoverX KINOMEscan scanMAX)
Method: as §1

NEK9 = target: T15, NEK9 (Homo sapiens, UniProt Q8TD19)
T15 construct: purchased Eurofins Discovery (DiscoverX KINOMEscan scanMAX)
Method: as §1

PKMYT1 = target: T16, PKMYT1 (Homo sapiens, UniProt Q99640)
T16 construct: purchased Eurofins Discovery (DiscoverX KINOMEscan scanMAX)
Method: as §1

MKK7 = target: T17, MKK7 (Homo sapiens, UniProt O14733)
T17 construct: purchased Eurofins Discovery (DiscoverX KINOMEscan scanMAX)
Method: as §1

EPHB2 = target: T18, EPHB2 (Homo sapiens, UniProt P29323)
T18 construct: purchased Eurofins Discovery (DiscoverX KINOMEscan scanMAX)
Method: as §1

PRKCD = target: T19, PRKCD (Homo sapiens, UniProt Q05655)
T19 construct: purchased Eurofins Discovery (DiscoverX KINOMEscan scanMAX)
Method: as §1

PAK3 = target: T20, PAK3 (Homo sapiens, UniProt O75914)
T20 construct: purchased Eurofins Discovery (DiscoverX KINOMEscan scanMAX)
Method: as §1

MAP3K3 = target: T21, MAP3K3 (Homo sapiens, UniProt Q99759)
T21 construct: purchased Eurofins Discovery (DiscoverX KINOMEscan scanMAX)
Method: as §1

MET(Y1235D) = target: T22, MET(Y1235D) (Homo sapiens, UniProt P08581, Y1235D)
T22 construct: purchased Eurofins Discovery (DiscoverX KINOMEscan scanMAX)
Method: as §1

ASK1 = target: T23, ASK1 (Homo sapiens, UniProt Q99683)
T23 construct: purchased Eurofins Discovery (DiscoverX KINOMEscan scanMAX)
Method: as §1

LATS2 = target: T24, LATS2 (Homo sapiens, UniProt Q9NRM7)
T24 construct: purchased Eurofins Discovery (DiscoverX KINOMEscan scanMAX)
Method: as §1

PIM1 = target: T25, PIM1 (Homo sapiens, UniProt P11309)
T25 construct: purchased Eurofins Discovery (DiscoverX KINOMEscan scanMAX)
Method: as §1

EGFR(S752-I759del) = target: T26, EGFR(S752-I759del) (Homo sapiens, UniProt P00533, DEL752-759)
T26 construct: purchased Eurofins Discovery (DiscoverX KINOMEscan scanMAX)
Method: as §1

PIP5K2C = target: T27, PIP5K2C (Homo sapiens, UniProt Q8TBX8)
T27 construct: purchased Eurofins Discovery (DiscoverX KINOMEscan scanMAX)
Method: as §1

PFCDPK1(P.falciparum) = target: T28, PFCDPK1(P.falciparum) (Plasmodium falciparum, UniProt P62344)
T28 construct: purchased Eurofins Discovery (DiscoverX KINOMEscan scanMAX)
Method: as §1

[2] = target: T29, EGFR(L747-S752del, P753S) (Homo sapiens, UniProt P00533, DEL747-752/P753S)
T29 construct: purchased Eurofins Discovery (DiscoverX KINOMEscan scanMAX)
Method: as §1

PKNB(M.tuberculosis) = target: T30, PKNB(M.tuberculosis) (Mycobacterium tuberculosis, UniProt P9WI81)
T30 construct: purchased Eurofins Discovery (DiscoverX KINOMEscan scanMAX)
Method: as §1

CDK4 = target: T31, CDK4 (Homo sapiens, UniProt P11802)
T31 construct: purchased Eurofins Discovery (DiscoverX KINOMEscan scanMAX)
Method: as §1

TLK2 = target: T32, TLK2 (Homo sapiens, UniProt Q86UE8)
T32 construct: purchased Eurofins Discovery (DiscoverX KINOMEscan scanMAX)
Method: as §1

CDC2L5 = target: T33, CDC2L5 (Homo sapiens, UniProt Q14004)
T33 construct: purchased Eurofins Discovery (DiscoverX KINOMEscan scanMAX)
Method: as §1

T6 sequence (Q6P3R8 whole entry): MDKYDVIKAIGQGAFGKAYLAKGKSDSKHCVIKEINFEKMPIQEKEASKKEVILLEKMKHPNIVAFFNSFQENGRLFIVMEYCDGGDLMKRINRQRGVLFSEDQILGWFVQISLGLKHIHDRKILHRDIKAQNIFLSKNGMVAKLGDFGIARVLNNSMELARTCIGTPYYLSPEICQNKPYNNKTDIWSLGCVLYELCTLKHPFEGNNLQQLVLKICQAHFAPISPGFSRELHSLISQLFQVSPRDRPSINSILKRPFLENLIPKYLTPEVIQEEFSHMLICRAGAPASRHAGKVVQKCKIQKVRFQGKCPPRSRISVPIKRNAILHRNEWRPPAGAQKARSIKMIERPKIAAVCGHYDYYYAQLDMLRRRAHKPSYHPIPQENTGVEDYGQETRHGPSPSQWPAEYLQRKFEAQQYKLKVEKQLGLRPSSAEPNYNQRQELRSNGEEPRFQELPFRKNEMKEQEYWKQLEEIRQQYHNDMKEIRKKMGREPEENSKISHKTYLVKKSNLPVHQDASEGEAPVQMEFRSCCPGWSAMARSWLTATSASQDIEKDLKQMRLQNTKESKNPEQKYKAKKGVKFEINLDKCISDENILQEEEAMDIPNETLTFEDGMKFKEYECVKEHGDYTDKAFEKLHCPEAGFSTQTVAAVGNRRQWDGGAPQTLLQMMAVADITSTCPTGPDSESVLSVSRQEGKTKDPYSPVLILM
T21 sequence (Q99759 whole entry): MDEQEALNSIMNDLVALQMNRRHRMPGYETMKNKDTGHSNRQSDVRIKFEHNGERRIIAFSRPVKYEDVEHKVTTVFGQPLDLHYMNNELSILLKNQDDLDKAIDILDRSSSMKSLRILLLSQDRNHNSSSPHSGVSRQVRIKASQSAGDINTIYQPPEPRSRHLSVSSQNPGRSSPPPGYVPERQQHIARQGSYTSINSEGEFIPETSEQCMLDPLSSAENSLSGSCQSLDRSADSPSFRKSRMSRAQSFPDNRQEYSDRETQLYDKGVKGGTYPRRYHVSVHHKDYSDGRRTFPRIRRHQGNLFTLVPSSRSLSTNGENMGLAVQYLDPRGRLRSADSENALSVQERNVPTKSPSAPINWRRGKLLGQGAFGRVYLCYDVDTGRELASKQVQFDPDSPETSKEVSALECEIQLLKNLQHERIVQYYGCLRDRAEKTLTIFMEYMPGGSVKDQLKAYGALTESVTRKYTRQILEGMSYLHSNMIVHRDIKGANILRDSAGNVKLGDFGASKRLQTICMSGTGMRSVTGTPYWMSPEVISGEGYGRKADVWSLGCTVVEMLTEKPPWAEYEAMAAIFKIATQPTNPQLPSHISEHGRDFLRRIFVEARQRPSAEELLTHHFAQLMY
T33 sequence (Q14004 whole entry): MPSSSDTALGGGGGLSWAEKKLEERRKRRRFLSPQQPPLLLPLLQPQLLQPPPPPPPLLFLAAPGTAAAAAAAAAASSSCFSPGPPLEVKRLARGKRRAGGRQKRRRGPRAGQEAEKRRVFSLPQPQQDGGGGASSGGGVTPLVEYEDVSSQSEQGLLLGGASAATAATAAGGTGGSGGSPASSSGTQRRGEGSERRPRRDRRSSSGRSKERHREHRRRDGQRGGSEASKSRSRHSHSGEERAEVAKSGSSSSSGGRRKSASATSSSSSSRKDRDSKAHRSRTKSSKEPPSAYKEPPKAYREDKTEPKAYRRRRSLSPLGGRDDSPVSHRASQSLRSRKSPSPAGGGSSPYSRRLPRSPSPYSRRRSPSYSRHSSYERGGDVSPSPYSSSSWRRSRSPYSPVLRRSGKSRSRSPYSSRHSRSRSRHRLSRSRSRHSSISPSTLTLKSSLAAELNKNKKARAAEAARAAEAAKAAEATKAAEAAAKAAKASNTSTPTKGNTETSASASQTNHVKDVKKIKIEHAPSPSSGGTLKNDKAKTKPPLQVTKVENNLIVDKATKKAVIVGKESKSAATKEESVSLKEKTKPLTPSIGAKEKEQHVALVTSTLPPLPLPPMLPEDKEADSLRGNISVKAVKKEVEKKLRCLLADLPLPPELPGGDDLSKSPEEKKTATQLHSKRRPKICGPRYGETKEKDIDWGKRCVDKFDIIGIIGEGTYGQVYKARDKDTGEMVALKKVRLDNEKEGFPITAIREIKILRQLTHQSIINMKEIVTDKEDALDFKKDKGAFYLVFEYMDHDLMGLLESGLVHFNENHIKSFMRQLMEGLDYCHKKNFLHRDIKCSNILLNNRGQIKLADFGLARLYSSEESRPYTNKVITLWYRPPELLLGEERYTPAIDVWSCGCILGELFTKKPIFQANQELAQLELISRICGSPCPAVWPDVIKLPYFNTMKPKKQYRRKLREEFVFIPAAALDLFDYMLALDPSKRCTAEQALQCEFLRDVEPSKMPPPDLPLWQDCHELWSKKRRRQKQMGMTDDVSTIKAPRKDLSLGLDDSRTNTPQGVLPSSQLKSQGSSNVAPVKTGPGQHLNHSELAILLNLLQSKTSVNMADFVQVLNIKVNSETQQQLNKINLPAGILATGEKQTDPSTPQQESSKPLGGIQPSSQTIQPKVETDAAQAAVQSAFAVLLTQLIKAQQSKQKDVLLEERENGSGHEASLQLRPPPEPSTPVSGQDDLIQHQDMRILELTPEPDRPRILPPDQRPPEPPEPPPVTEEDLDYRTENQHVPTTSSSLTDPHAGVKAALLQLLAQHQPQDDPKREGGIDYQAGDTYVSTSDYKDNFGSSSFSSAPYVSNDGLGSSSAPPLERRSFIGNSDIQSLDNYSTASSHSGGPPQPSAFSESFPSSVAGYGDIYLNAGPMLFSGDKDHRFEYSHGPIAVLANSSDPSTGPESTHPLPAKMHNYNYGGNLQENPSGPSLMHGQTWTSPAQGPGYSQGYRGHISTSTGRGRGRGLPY
T18 sequence (P29323 19-1055): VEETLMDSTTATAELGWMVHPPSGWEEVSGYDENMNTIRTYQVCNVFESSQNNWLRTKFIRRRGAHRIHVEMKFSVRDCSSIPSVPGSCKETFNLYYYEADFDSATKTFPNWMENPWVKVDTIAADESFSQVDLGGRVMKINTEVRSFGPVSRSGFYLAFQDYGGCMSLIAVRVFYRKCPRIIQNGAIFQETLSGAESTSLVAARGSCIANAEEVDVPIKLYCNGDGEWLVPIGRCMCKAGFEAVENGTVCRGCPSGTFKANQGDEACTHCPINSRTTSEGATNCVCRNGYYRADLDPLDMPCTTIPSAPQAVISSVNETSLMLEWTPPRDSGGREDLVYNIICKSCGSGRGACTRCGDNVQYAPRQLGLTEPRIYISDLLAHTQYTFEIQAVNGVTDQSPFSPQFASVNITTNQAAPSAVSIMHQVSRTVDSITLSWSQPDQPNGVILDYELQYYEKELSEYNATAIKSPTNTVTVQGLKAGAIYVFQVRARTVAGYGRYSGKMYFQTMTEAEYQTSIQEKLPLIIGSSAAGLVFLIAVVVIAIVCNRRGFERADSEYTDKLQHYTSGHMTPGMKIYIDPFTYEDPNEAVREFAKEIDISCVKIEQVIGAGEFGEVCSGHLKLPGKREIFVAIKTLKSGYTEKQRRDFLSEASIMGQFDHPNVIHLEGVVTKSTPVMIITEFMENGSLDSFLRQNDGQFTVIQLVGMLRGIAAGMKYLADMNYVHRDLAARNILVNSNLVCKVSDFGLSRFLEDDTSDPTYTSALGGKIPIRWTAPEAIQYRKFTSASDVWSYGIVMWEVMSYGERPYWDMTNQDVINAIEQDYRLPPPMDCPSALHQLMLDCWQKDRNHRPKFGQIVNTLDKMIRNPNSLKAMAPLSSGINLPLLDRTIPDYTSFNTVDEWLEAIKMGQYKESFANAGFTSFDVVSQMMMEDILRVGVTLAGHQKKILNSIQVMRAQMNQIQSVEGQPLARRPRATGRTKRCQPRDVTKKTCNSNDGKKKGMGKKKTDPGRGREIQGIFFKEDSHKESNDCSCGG
T12 sequence (Q59H18 whole entry): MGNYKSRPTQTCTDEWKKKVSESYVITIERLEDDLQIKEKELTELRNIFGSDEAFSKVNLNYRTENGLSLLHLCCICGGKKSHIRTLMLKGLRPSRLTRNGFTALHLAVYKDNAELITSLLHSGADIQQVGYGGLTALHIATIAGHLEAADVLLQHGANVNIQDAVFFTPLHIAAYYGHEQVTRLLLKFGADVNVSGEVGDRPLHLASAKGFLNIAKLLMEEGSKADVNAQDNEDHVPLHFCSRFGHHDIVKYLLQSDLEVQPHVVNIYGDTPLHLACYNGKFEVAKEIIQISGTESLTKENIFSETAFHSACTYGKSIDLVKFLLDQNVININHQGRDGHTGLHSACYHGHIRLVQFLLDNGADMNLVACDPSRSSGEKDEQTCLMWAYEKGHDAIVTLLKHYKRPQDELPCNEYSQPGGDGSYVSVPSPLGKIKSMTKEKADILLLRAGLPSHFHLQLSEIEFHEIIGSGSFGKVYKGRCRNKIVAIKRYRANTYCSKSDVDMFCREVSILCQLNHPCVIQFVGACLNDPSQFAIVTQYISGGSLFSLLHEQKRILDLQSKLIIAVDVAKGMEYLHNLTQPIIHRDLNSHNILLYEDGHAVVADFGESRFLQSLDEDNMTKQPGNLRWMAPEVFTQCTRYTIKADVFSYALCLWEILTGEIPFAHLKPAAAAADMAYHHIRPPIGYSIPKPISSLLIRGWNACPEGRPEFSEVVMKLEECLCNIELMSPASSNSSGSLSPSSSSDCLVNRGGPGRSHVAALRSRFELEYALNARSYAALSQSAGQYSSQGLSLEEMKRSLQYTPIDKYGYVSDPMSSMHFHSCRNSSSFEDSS
T25 sequence (P11309 whole entry): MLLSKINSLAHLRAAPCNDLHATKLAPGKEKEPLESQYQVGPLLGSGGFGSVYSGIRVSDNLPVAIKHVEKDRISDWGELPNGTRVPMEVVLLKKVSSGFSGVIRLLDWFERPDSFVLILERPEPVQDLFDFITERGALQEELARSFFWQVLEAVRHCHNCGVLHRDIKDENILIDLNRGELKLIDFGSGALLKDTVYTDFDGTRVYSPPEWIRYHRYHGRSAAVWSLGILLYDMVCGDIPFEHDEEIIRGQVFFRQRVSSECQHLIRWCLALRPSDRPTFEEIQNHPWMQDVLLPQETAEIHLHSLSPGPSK

With `Cc1cc(Nc2ccc(F)c(CC3(C(=O)N4CCC(F)(CN5CCN(c6ccc(N7CCC(=O)NC7=O)cn6)CC5)CC4)CCN(Cc4cccc(Cl)c4F)CC3)n2)n[nH]1` [SK5527] the remaining binding at 0.1 µM (PFTAIRE2; 100 nM) was 75%, the remaining binding at 1 µM (PFTAIRE2; 1000 nM) was 80% and the remaining binding at 0.1 µM (MLK3; 100 nM) was 85%. The remaining binding at 1 µM (MLK3; 1000 nM) was 100%, the remaining binding at 0.1 µM (MAP3K2; 100 nM) was 92% and the remaining binding at 1 µM (MAP3K2; 1000 nM) was 73%. For the same compound, the remaining binding at 0.1 µM (DCAMKL1; 100 nM) was 100%, the remaining binding at 1 µM (DCAMKL1; 1000 nM) was 88% and the remaining binding at 0.1 µM (PIK3CA(I800L); 100 nM) was 85%. For the same compound, the remaining binding at 1 µM (PIK3CA(I800L); 1000 nM) was 74%, the remaining binding at 0.1 µM (NEK5; 100 nM) was 100% and the remaining binding at 1 µM (NEK5; 1000 nM) was 100%. It also gave a remaining binding at 0.1 µM ([1]; 100 nM) of 90%, a remaining binding at 1 µM ([1]; 1000 nM) of 95% and a remaining binding at 0.1 µM (WEE2; 100 nM) of 79%. The remaining binding at 1 µM (WEE2; 1000 nM) was 88%, the remaining binding at 0.1 µM (PIK3CD; 100 nM) was 69% and the remaining binding at 1 µM (PIK3CD; 1000 nM) was 87%. The remaining binding at 0.1 µM (ERK4; 100 nM) was 97%, the remaining binding at 1 µM (ERK4; 1000 nM) was 98% and the remaining binding at 0.1 µM (PIK3C2B; 100 nM) was 99%. The remaining binding at 1 µM (PIK3C2B; 1000 nM) was 91%, the remaining binding at 0.1 µM (TNNI3K; 100 nM) was 73% and the remaining binding at 1 µM (TNNI3K; 1000 nM) was 70%. The remaining binding at 0.1 µM (PDPK1; 100 nM) was 89%, the remaining binding at 1 µM (PDPK1; 1000 nM) was 100% and the remaining binding at 0.1 µM (DMPK; 100 nM) was 88%. It also gave a remaining binding at 1 µM (DMPK; 1000 nM) of 90%, a remaining binding at 0.1 µM (NEK9; 100 nM) of 78% and a remaining binding at 1 µM (NEK9; 1000 nM) of 81%. It also gave a remaining binding at 0.1 µM (PKMYT1; 100 nM) of 81%, a remaining binding at 1 µM (PKMYT1; 1000 nM) of 58% and a remaining binding at 0.1 µM (MKK7; 100 nM) of 100%. It also gave a remaining binding at 1 µM (MKK7; 1000 nM) of 54%, a remaining binding at 0.1 µM (EPHB2; 100 nM) of 74% and a remaining binding at 1 µM (EPHB2; 1000 nM) of 95%. It also gave a remaining binding at 0.1 µM (PRKCD; 100 nM) of 100%, a remaining binding at 1 µM (PRKCD; 1000 nM) of 100% and a remaining binding at 0.1 µM (PAK3; 100 nM) of 100%. The remaining binding at 1 µM (PAK3; 1000 nM) was 100%, the remaining binding at 0.1 µM (MAP3K3; 100 nM) was 100% and the remaining binding at 1 µM (MAP3K3; 1000 nM) was 96%. The remaining binding at 0.1 µM (MET(Y1235D); 100 nM) was 86%, the remaining binding at 1 µM (MET(Y1235D); 1000 nM) was 100% and the remaining binding at 0.1 µM (ASK1; 100 nM) was 91%. It also gave a remaining binding at 1 µM (ASK1; 1000 nM) of 92%, a remaining binding at 0.1 µM (LATS2; 100 nM) of 69% and a remaining binding at 1 µM (LATS2; 1000 nM) of 43%. It also gave a remaining binding at 0.1 µM (PIM1; 100 nM) of 100%, a remaining binding at 1 µM (PIM1; 1000 nM) of 99% and a remaining binding at 0.1 µM (EGFR(S752-I759del); 100 nM) of 98%. It also gave a remaining binding at 1 µM (EGFR(S752-I759del); 1000 nM) of 100%, a remaining binding at 0.1 µM (PIP5K2C; 100 nM) of 100% and a remaining binding at 1 µM (PIP5K2C; 1000 nM) of 100%. For the same compound, the remaining binding at 0.1 µM (PFCDPK1(P.falciparum); 100 nM) was 87%, the remaining binding at 1 µM (PFCDPK1(P.falciparum); 1000 nM) was 81% and the remaining binding at 0.1 µM ([2]; 100 nM) was 81%. The remaining binding at 1 µM ([2]; 1000 nM) was 65%, the remaining binding at 0.1 µM (PKNB(M.tuberculosis); 100 nM) was 93% and the remaining binding at 1 µM (PKNB(M.tuberculosis); 1000 nM) was 94%. The remaining binding at 0.1 µM (CDK4; 100 nM) was 72%, the remaining binding at 1 µM (CDK4; 1000 nM) was 90% and the remaining binding at 0.1 µM (TLK2; 100 nM) was 100%. It also gave a remaining binding at 1 µM (TLK2; 1000 nM) of 94%, a remaining binding at 0.1 µM (CDC2L5; 100 nM) of 82% and a remaining binding at 1 µM (CDC2L5; 1000 nM) of 73%.

Reference: PMC12670405, “Second-Generation AURKA-Targeting PROTACs: Structural Optimization toward in Vivo Degradation in Neuroblastoma” (Journal of Medicinal Chemistry, 2025)
